Experimental data as given in PubChem BioAssay AID720589 (Broad Institute, 2013).
Calls of active or inactive are those of the source.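 How the source made its calls: active means fitted curve drops below -35% activity at a concentration within twice the top valid tested dose; inconclusive means no clear call, values can overlap the other calls; inactive means signal rising instead of falling, among other cases.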

Tested on: not listed separately
Test: ATP-based viability loss in HepG2 cells – cell-based, CellTiter-Glo luminescence, cherry-pick, set 3, cytotoxicity control, dose response (AID 720589)
Conditions: HepG2 viability, ATP luminescence (CellTiter-Glo), 72 h; at 0.011 µM; active compounds read low; 0% = untreated, negative = ATP loss

Compound	max activity
N/C(=C\C(=O)c1cc(Cl)ccc1O)C(Cl)(Cl)Cl	-18.1% (inactive)
O=C(CCCCl)Nc1nc(-c2ccc3c(c2)OCCO3)cs1	-25% (inactive)
CC(=O)Nc1ccc(OCC(=O)N(CC(C)C)C2CCS(=O)(=O)C2)cc1 (centres undefined)	42.5% (inactive)
COc1ccc(/C=N/Nc2ccc(C(=O)O)cc2)cc1Br	-16% (inactive)
Cc1c(-c2nc(-c3ccc(C(C)(C)C)cc3)no2)n(C)oc1=O	-27.3% (inactive)
O=C1CCCC2=C1C(c1ccccn1)Nc1ccc(C(=O)c3ccccc3)cc1N2 (centres undefined)	38.6% (inactive)

Same assay, conditions: HepG2 viability, ATP luminescence (CellTiter-Glo), 72 h; at 0.035 µM; active compounds read low; 0% = untreated, negative = ATP loss

Compound	max activity
CN(C)C(=S)N=Nc1[nH]c2ccccc2c1O	24.6% (inactive)
C/C(=N\OCc1cccc(C(=O)O)c1)c1ccc(Cl)cc1	-7.45% (inactive)
C[C@H]1CN([C@@H](C)CO)C(=O)Cc2cc(NC(=O)C3CC3)ccc2O[C@H]1CN(C)S(=O)(=O)c1ccc(Cl)cc1	-39.2% (inactive)

Same assay, conditions: HepG2 viability, ATP luminescence (CellTiter-Glo), 72 h; at 0.1 µM; active compounds read low; 0% = untreated, negative = ATP loss

Compound	max activity
O=C1Nc2ccccc2C1=Nc1ccc(Br)cc1	-11.9% (inactive)
Cc1[nH]c(=S)sc1Cc1ccc(Cl)c(Cl)c1	-20.8% (inactive)
CCOc1ccc(N=C2C(=O)Nc3ccc(C)c(Br)c32)cc1	11.1% (inactive)
Cc1noc(C)c1C(=O)Nc1sccc1C(N)=O	-22.6% (inactive)
Cc1ccc(S(=O)(=O)N(C)C[C@H]2Oc3c(cccc3N(C)C)C(=O)N([C@@H](C)CO)C[C@@H]2C)cc1	-28.2% (inactive)
CC(=O)c1ccc(NC(=O)c2noc3c2CCC3)cc1	-34.6% (inactive)

Same assay, conditions: HepG2 viability, ATP luminescence (CellTiter-Glo), 72 h; at 0.3 µM; active compounds read low

Compound	max activity
O=C1NC(=O)N(CCc2ccc(F)cc2)C(=O)/C1=C/C=C/c1ccccc1	-15.6% (inactive)

Same assay, conditions: HepG2 viability, ATP luminescence (CellTiter-Glo), 72 h; at 0.3 µM; active compounds read low; 0% = untreated, negative = ATP loss

Compound	max activity
CCOc1ccc(NC(=O)C(=O)N/N=C\c2ccc(CNS(=O)(=O)c3ccccc3)o2)cc1	-36.6% (inactive)
Cc1cc(C(=O)Nc2ccc3c(c2)C(=O)N(C)[C@@H]2CC[C@@H](CC(=O)NCc4ccc(-c5ccccc5)cc4)O[C@H]2CO3)no1	-28.4% (inactive)
C[C@@H]1CN([C@H](C)CO)C(=O)c2cc(NS(=O)(=O)c3ccc(Cl)cc3)ccc2O[C@@H]1CN(C)Cc1ccc(Cl)c(Cl)c1	-36.6% (inactive)
CC(C)CC(NC(=O)c1cccs1)c1nnc(SCc2ccc(Cl)c(Cl)c2)n1C (centres undefined)	-28.1% (inactive)

Same assay, conditions: HepG2 viability, ATP luminescence (CellTiter-Glo), 72 h; at 0.9 µM; active compounds read low; 0% = untreated, negative = ATP loss

Compound	max activity
S=c1[nH]nc(-c2cc(-c3ccccc3)n[nH]2)n1/N=C/C(Br)=C/c1ccccc1	-17.9% (inactive)
O=C1C(=O)N(CCS(=O)(=O)c2ccccc2)c2ccc(Cl)cc21	-12.3% (inactive)

Same assay, conditions: HepG2 viability, ATP luminescence (CellTiter-Glo), 72 h; at 2.85 µM; active compounds read low; 0% = untreated, negative = ATP loss

Compound	max activity
Cc1ccsc1/C=N/Nc1cccc(C(=O)O)c1	-32.4% (inactive)
CN(C)c1ccc2c(c1)[C@@H]1C[C@@H](CC(=O)NCc3ccc(Oc4ccccc4)cc3)O[C@H](CO)[C@@H]1O2	-31.7% (inactive)
C[C@@H]1CN([C@H](C)CO)C(=O)c2cc(C#CCc3ccccc3)cnc2O[C@@H]1CN(C)Cc1cccc(F)c1	-31.8% (inactive)

Same assay, conditions: HepG2 viability, ATP luminescence (CellTiter-Glo), 72 h; at 8 µM; active compounds read low; 0% = untreated, negative = ATP loss

Compound	max activity
N#CC1=C(N)Oc2cc(N)ccc2C1c1cccc(F)c1 (centres undefined)	-30% (inactive)
Nc1ccc2c(c1)OC1(CCCC1)O2	-32.8% (inactive)
CCOc1ccc(/C=C2\CCc3ccccc3C2=O)cc1	-13.7% (inactive)
Cc1ccc(Cl)cc1NC(=O)Cn1cc(C(F)(F)F)cc(Cl)c1=O	-28.6% (inactive)

Same assay, conditions: HepG2 viability, ATP luminescence (CellTiter-Glo), 72 h; at 26 µM; active compounds read low

Compound	max activity
O=C1NC(=S)NC(=O)C1=Cc1cccn1-c1ccc(O)cc1	-27.6% (inactive)

Same assay, conditions: HepG2 viability, ATP luminescence (CellTiter-Glo), 72 h; at 26 µM; active compounds read low; 0% = untreated, negative = ATP loss

Compound	max activity
O=C(O)c1ccc2cc(-c3ccccc3)[nH]c2c1	-25% (inactive)
COc1ccc(CNc2ncc(-c3ccc(F)cc3)n2C)c2ccccc12	-23.1% (inactive)
CC1=NC(=O)C(N=Nc2cccc(C(=O)O)c2)N1c1ccccc1 (centres undefined)	-23.4% (inactive)
CC(C)(C)C(=O)Cn1ncc(Cl)c(Cl)c1=O	-23.7% (inactive)
COC(=O)COc1ccc(-c2nccc(-c3ccccn3)n2)cc1	18.7% (inactive)
COc1cccc(CN2CCC2(C)C(=O)Nc2cccc3cccnc23)c1F (centres undefined)	-24% (inactive)
COc1ccc(C2=NNC(=Nc3cc(S(=O)(=O)N(C)C)ccc3C)SC2)c(OC)c1	-17.3% (inactive)
COc1ccc(C(=O)CN2C(=O)c3ccccc3S2(=O)=O)cc1	10.2% (inactive)
CC(C)N1C/C(=C/c2cccnc2)C(=O)/C(=C/c2cccnc2)C1	-29.5% (inactive)
O=c1[nH]c(=O)n(C2C[C@H](O)[C@@H](CO)O2)cc1C(F)(F)F (some centres undefined)	-30.8% (inactive)
O=C1CCC2S/C(=C/Nc3ccc(C(F)(F)F)cc3)C(=O)N12 (centres undefined)	25.6% (inactive)
C[C@@H]1CN([C@@H](C)CO)C(=O)Cc2cc(NC(=O)Cn3cnnn3)ccc2O[C@@H]1CN(C)Cc1ccc(Oc2ccccc2)cc1	25% (inactive)
COc1ccc(/C=C(/C(=O)c2cccs2)N2C=CC=CC2=C(C#N)C#N)cc1	-33.6% (inactive)

Tested on: HepG2 viability, ATP luminescence (CellTiter-Glo), 72 h
Test: as above
Conditions: not given

Compound	AC35 [µM]
Nc1nc(=S)c2ncn([C@@H]3O[C@H](CO)[C@@H](O)[C@H]3O)c2[nH]1	2.56
C[C@]12CC[C@H](O)C[C@H]1CC[C@@H]1[C@@H]2CC[C@]2(C)[C@@H](C3=CC(=O)OC3)CC[C@]12O	2.6
C[C@@H]1O[C@@H](O[C@@H]2C=C3CCC4C(CC[C@]5(C)[C@@H](c6ccc(=O)oc6)CC[C@]45O)[C@@]3(C)CC2)[C@H](O)[C@H](O)[C@H]1O (some centres undefined)	0.068
CCc1nc(N)nc(N)c1-c1ccc(Cl)c(N=[N+]=[N-])c1	5
Nc1nc(N)c(-c2cccc(C(F)(F)F)c2)c(Cc2cccc(C(F)(F)F)c2)n1	4.53
CCN(Cc1ccccc1)c1ccc(/C=N/N=C(N)N)cc1	4.18
Cc1c(CC(=O)NCCCC(=O)O)c(=O)oc2cc3c(cc12)CCC(C)(C)O3	16.3
CCN(CC)C(=O)CN1C(=O)C(=O)c2ccccc21	7.54
CNC[C@H](CC1CCCCC1)NC[C@H](CO)NCCc1cccc(C(F)(F)F)c1	7.57
C[C@@H]1CCCCO[C@H](CN(C)Cc2ccc(C(=O)Nc3ccccc3N)cc2)[C@@H](C)CN([C@@H](C)CO)C(=O)c2cc(NS(=O)(=O)c3ccc(Cl)cc3)ccc2O1	8.5
O=C(Nc1cccc(S(=O)(=O)N2CCCC2)c1)c1ccc(Cl)nc1	16
O=C1NC(=O)N(c2ccccc2)C(=O)/C1=C\C=C\c1ccccc1	5.21
C[C@@H]1CN([C@@H](C)CO)C(=O)Cc2cc(N(C)C)ccc2O[C@H]1CN(C)Cc1ccc(C(=O)Nc2ccccc2N)cc1	2.38
CN(C)c1ncnc2c1ccn2C1OC(CO)C(O)C1O (centres undefined)	0.178
Cc1noc(C)c1NC(=O)Nc1ccc2c(c1)CC(=O)N([C@H](C)CO)C[C@@H](C)[C@@H](CN(C)Cc1ccc(Cl)c(Cl)c1)O2	7.54
CCOc1ccc2nc(NC3=NC(c4ccc(OC)cc4)CC(=O)N3)nc(C)c2c1 (centres undefined)	10.2
COc1ccc(Cn2cc3c(-c4ccc(F)cc4)nnc-3c3cc(OC)c(OC)cc32)cc1	10.6
C[C@H](CO)N1C[C@H](C)[C@H](CN(C)CC2CCCCC2)Oc2ccc(NC(=O)Nc3cccc4ccccc34)cc2C1=O	14.9

Compound	AC35 [µM]
O=C1/C(=C\c2ccccc2)CN(C(=O)CCN2CCCCC2)C/C1=C/c1ccccc1	3.95
COC(=O)C[C@@H]1CC[C@H]2[C@H](COc3ccc(NC(=O)Nc4ccc(C#N)cc4)cc3C(=O)N2C)O1	4.2
C[C@@H]1O[C@@H](O[C@H]2C[C@@H](O)[C@]3(CO)[C@@H]4C(CC[C@]3(O)C2)[C@@]2(O)CC[C@H](C3COC(=O)C3)[C@@]2(C)C[C@H]4O)[C@H](O)[C@H](O)[C@H]1O (some centres undefined)	1.47
CC(=O)OC1CC(OC2C(O)CC(OC3C(O)CC(OC4CCC5(C)C(CCC6C5CCC5(C)C(C7=CC(=O)OC7)CCC65O)C4)OC3C)OC2C)OC(C)C1OC1OC(CO)C(O)C(O)C1O (centres undefined)	0.0996
CC(=O)OC1CC(OC2C(O)CC(OC3C(O)CC(OC4CCC5(C)C(CCC6C5CC(O)C5(C)C(C7=CC(=O)OC7)CCC65O)C4)OC3C)OC2C)OC(C)C1OC1OC(CO)C(O)C(O)C1O (centres undefined)	0.285
O=c1[nH]c(=O)n([C@H]2C[C@H](O)[C@@H](CO)O2)cc1C(F)(F)F	15.6
C=C(C(=O)c1ccccc1)C(C(=C)C(=O)c1ccccc1)c1ccc(OC)cc1	8.69
O=C(NC1CCCC1)N1CCCCN2[C@@H](CO)[C@@H](c3ccc(/C=C/c4ccccc4)cc3)[C@@H]2C1	9.99
C=C1C(=O)OC2C1CCC(C)C1(O)C=CC(=O)C21C (centres undefined)	16.4
C[C@H](CO)N1C[C@H](C)[C@H](CN(C)Cc2ccc(Oc3ccccc3)cc2)Oc2ccc(NC(=O)Cn3cnnn3)cc2CC1=O	6.59
Cc1ccc(S(=O)(=O)Nc2ccc3c(c2)C(=O)N([C@H](C)CO)C[C@@H](C)[C@@H](CN(C)Cc2ccc(C(=O)Nc4ccccc4N)cc2)O3)cc1	1.28
O=C(/C=C/c1cc(Br)ccc1O)c1ccco1	17.7
CCN1/C(=C/C=C/c2oc3ccc(-c4ccccc4)cc3[n+]2CC)Oc2ccc(-c3ccccc3)cc21	2.37
NC1=CC(=O)C(=O)c2cccnc21	13.7
OCC1OC(n2ccc3c2ncn2ncnc32)C(O)C1O (centres undefined)	0.339
O=C(Nc1ccc2c(c1)OCO2)N1C[C@@H]2N[C@H](C1)C2c1ccc(C=Cc2ccccc2)cc1 (some centres undefined)	5.42
Cc1c(CCOC(=O)CC23CC4CC(CC(C)(C4)C2)C3)sc[n+]1CC(=O)c1ccccc1	18.4
C(=NNc1ccc2ccccc2n1)c1ccccn1	1.64
